# Assay results as given in a compilation of properties of binary mixtures (doi:10.1016/j.molliq.2022.119052).
# Test: xn = mol fraction of the nth substance listed
# Conditions: 100 kPa, x1 = 0.333
viscosity (298.15 K) [mPa·s],viscosity (313.15 K) [mPa·s],viscosity (323.15 K) [mPa·s],viscosity (333.15 K) [mPa·s],viscosity (303.15 K) [mPa·s],Structure (SMILES)
79.9,45.3,32,23,–,CCn1cc[nH+]c1.[Cl-] + OCC(O)CO
156.4,85.1,58.5,41.2,–,CC[n+]1ccn(C)c1.[Cl-] + OCC(O)CO
–,–,49.1,–,103.1,Cn1cc[nH+]c1.[Cl-] + OCC(O)CO
